Results reported in ChEMBL document CHEMBL1687726, “Amphotericin B-induced renal tubular cell injury is mediated by Na+ Influx through ion-permeable pores and subsequent activation of mitogen-activated protein kinases and elevation of intracellular Ca2+ concentration” (Antimicrob Agents Chemother, 2009).
The source made the active and inactive calls. The calls are words filed in the database; no cut-off is given here.

Assays:
LLC-PK1 [1] = assay: Cytotoxicity against pig LLC-PK1 cells at 15 ug/ml after 6 hrs pretreated with 1 uM of IP3 antagonist Xesto for 20 mins by WST-8 assay; format: cell-based, Sus scrofa; conditions: llc-pk1, 6 h
LLC-PK1 [2] = assay: Induction of apoptosis in pig LLC-PK1 cells at 15 ug/ml after 24 hrs by TUNEL assay; format: cell-based, Sus scrofa; conditions: llc-pk1, 24 h
LLC-PK1 [3] = assay: Cytotoxicity against pig LLC-PK1 cells at 15 ug/ml after 6 hrs pretreated for 1 hr with membrane cholesterol depletion agent methyl-beta-cyclodextrin in presence of 4% v/v cholesterol repletion condition; format: cell-based, Sus scrofa; conditions: llc-pk1, 6 h
LLC-PK1 [4] = assay: Induction of p38 phosphorylation in pig LLC-PK1 cells at 15 ug/ml by Western blot analysis in presence of 2 uM […]; format: cell-based; conditions: Sus scrofa
LLC-PK1 [5] = assay: Cytotoxicity against pig LLC-PK1 cells at 15 ug/ml after 6 hrs pretreated with 10 uM of mitochondrial Na+ -Ca2+ exchange inhibitor CGP for 20 mins by WST-8 assay; format: cell-based, Sus scrofa; conditions: llc-pk1, 6 h
LLC-PK1 [6] = assay: Induction of ERK phosphorylation in pig LLC-PK1 cells at 15 ug/ml by Western blot analysis; format: cell-based; conditions: Sus scrofa
LLC-PK1 [7] = assay: Induction of JNK phosphorylation in pig LLC-PK1 cells at 15 ug/ml by Western blot analysis; format: cell-based; conditions: Sus scrofa
LLC-PK1 [8] = assay: Cytotoxicity against pig LLC-PK1 cells at 15 ug/ml after 6 hrs pretreated with 10 uM of ERK inhibitor PD98059 for 1 hr by WST-8 assay; format: cell-based, Sus scrofa; conditions: llc-pk1, 6 h
LLC-PK1 [9] = assay: Induction of p38 phosphorylation in pig LLC-PK1 cells at 15 ug/ml by Western blot analysis; format: cell-based; conditions: Sus scrofa
LLC-PK1 [10] = assay: Cytotoxicity against pig LLC-PK1 cells at 15 ug/ml after 6 hrs by WST-8 assay in presence low extracellular Na+ level (70 mM Na+); format: cell-based, Sus scrofa; conditions: llc-pk1, 6 h
LLC-PK1 [11] = assay: Cytotoxicity against pig LLC-PK1 cells at 20 ug/mL by LDH leakage assay; format: cell-based, Sus scrofa; conditions: TDE = time-dependent effect
LLC-PK1 [12] = assay: Cytotoxicity against pig LLC-PK1 cells at 15 ug/ml after 6 hrs by WST-8 assay in presence of 1 mM […] Ca2+ chelating agent EGTA; format: cell-based, Sus scrofa; conditions: llc-pk1, 6 h
LLC-PK1 [13] = assay: Induction of ERK phosphorylation in pig LLC-PK1 cells at 15 ug/ml by Western blot analysis in presence of 2 uM […]; format: cell-based; conditions: Sus scrofa
LLC-PK1 [14] = assay: Induction of mitochondrial membrane depolarization in pig LLC-PK1 cells at 15 ug/ml after 3 hrs pretreated with 10 uM of ERK inhibitor PD98059 for 1 hr by JC-1 staining based fluorescent microscopy; format: cell-based, Sus scrofa; conditions: llc-pk1, 3 h
LLC-PK1 [15] = assay: Cytotoxicity against pig LLC-PK1 cells at 1 to 20 ug/mL after 24 hrs by LDH leakage assay; format: cell-based, Sus scrofa; conditions: llc-pk1, 24 h
LLC-PK1 [16] = assay: Cytotoxicity against pig LLC-PK1 cells at 15 ug/ml after 6 hrs pretreated with 10 uM of p38 MAPK inhibitor PD169316 for 1 hr by WST-8 assay; format: cell-based, Sus scrofa; conditions: llc-pk1, 6 h
LLC-PK1 [17] = assay: Cytotoxicity against pig LLC-PK1 cells at 15 ug/ml after 6 hrs pretreated with 10 uM of mitochondrial Ca2+ uniport inhibitor RR for 20 mins by WST-8 assay; format: cell-based, Sus scrofa; conditions: llc-pk1, 6 h
LLC-PK1 [18] = assay: Cytotoxicity against pig LLC-PK1 cells at 15 ug/ml after 6 hrs pretreated for 1 hr with membrane cholesterol depletion agent methyl-beta-cyclodextrin; format: cell-based, Sus scrofa; conditions: llc-pk1, 6 h
LLC-PK1 [19] = assay: Cytotoxicity against pig LLC-PK1 cells at 15 ug/ml after 24 hrs by propidium iodide staining; format: cell-based, Sus scrofa; conditions: llc-pk1, 24 h
LLC-PK1 [20] = assay: Induction of mitochondrial membrane depolarization in pig LLC-PK1 cells at 15 ug/ml after 3 hrs pretreated with 10 uM of mitochondrial Ca2+ uniport inhibitor RR for 1 hr by JC-1 staining based fluorescent microscopy; format: cell-based, Sus scrofa; conditions: llc-pk1, 3 h
LLC-PK1 [21] = assay: Cytotoxicity against pig LLC-PK1 cells at 20 ug/mL by WST-8 assay; format: cell-based, Sus scrofa; conditions: TDE = time-dependent effect
LLC-PK1 [22] = assay: Cytotoxicity against pig LLC-PK1 cells at 15 ug/ml after 6 hrs pretreated with 30 uM of ryanodine receptor antagonist Dant for 20 mins by WST-8 assay; format: cell-based, Sus scrofa; conditions: llc-pk1, 6 h
LLC-PK1 [23] = assay: Decrease in intracellular ATP level in pig LLC-PK1 cells at 10 ug/ml after 24 hrs by HPLC/MS analysis; format: ADME, cell-based, Sus scrofa; conditions: llc-pk1, 24 h, TDE = time-dependent effect
LLC-PK1 [24] = assay: Induction of JNK phosphorylation in pig LLC-PK1 cells at 15 ug/ml by Western blot analysis in presence of 2 uM […]; format: cell-based; conditions: Sus scrofa
LLC-PK1 [25] = assay: Decrease in intracellular ATP level in pig LLC-PK1 cells after 24 hrs by HPLC/MS analysis; format: ADME, cell-based, Sus scrofa; conditions: llc-pk1, 24 h
LLC-PK1 [26] = assay: Cytotoxicity against pig LLC-PK1 cells at 15 ug/ml after 6 hrs pretreated with 10 uM of JNK inhibitor 2 for 1 hr by WST-8 assay; format: cell-based, Sus scrofa; conditions: llc-pk1, 6 h
LLC-PK1 [27] = assay: Induction of mitochondrial membrane depolarization in pig LLC-PK1 cells at 15 ug/ml after 3 hrs pretreated with 10 uM of JNK inhibitor 2 for 1 hr by JC-1 staining based fluorescent microscopy; format: cell-based, Sus scrofa; conditions: llc-pk1, 3 h
LLC-PK1 [28] = assay: Induction of mitochondrial membrane depolarization in pig LLC-PK1 cells at 15 ug/ml after 3 hrs pretreated with 10 uM of mitochondrial Na+ -Ca2+ exchange inhibitor CGP for 1 hr by JC-1 staining based fluorescent microscopy; format: cell-based, Sus scrofa; conditions: llc-pk1, 3 h
LLC-PK1 [29] = assay: Induction of mitochondrial membrane depolarization in pig LLC-PK1 cells at 15 ug/ml after 3 hrs by JC-1 staining based fluorescent microscopy; format: cell-based, Sus scrofa; conditions: llc-pk1, 3 h
LLC-PK1 [30] = assay: Cytotoxicity against pig LLC-PK1 cells at 1 to 20 ug/mL after 24 hrs by WST-8 assay; format: cell-based, Sus scrofa; conditions: llc-pk1, 24 h
LLC-PK1 [31] = assay: Cytotoxicity against pig LLC-PK1 cells at 15 ug/ml after 6 hrs by WST-8 assay in presence of 2 uM […]; format: cell-based, Sus scrofa; conditions: llc-pk1, 6 h

## C[C@@H]1[C@H](O)[C@@H](C)/C=C/C=C/C=C/C=C/C=C/C=C/C=C/[C@H](O[C@@H]2O[C@H](C)[C@@H](O)[C@H](N)[C@@H]2O)C[C@@H]2O[C@](O)(C[C@@H](O)C[C@@H](O)[C@H](O)CC[C@@H](O)C[C@@H](O)CC(=O)O[C@H]1C)C[C@H](O)[C@H]2C(=O)O [AMPHOTERICIN B]
LLC-PK1 [1]
  Activity: Toxic
LLC-PK1 [2]
  Activity: Non-toxic
LLC-PK1 [3]
  Activity: Toxic
LLC-PK1 [4]
  Activity: Active
LLC-PK1 [5]
  Activity: Non-toxic
LLC-PK1 [6]
  Activity: Active
LLC-PK1 [7]
  Activity: Active
LLC-PK1 [8]
  Activity: Non-toxic
LLC-PK1 [9]
  Activity: Active
LLC-PK1 [10]
  Activity: Non-toxic
LLC-PK1 [11]
  Activity: tde
LLC-PK1 [12]
  Activity: Non-toxic
LLC-PK1 [13]
  Activity: Active
LLC-PK1 [14]
  Activity: Toxic
LLC-PK1 [15]
  Activity: Dose-dependent effect
LLC-PK1 [16]
  Activity: Non-toxic
LLC-PK1 [17]
  Activity: Non-toxic
LLC-PK1 [18]
  Activity: Non-toxic
LLC-PK1 [19]
  Activity: Toxic
LLC-PK1 [20]
  Activity: Toxic
LLC-PK1 [21]
  Activity: tde
LLC-PK1 [22]
  Activity: Non-toxic
LLC-PK1 [23]
  Activity: tde
LLC-PK1 [24]
  Activity: Active
LLC-PK1 [25]
  Activity: Dose-dependent effect
LLC-PK1 [26]
  Activity: Non-toxic
LLC-PK1 [27]
  Activity: Toxic
LLC-PK1 [28]
  Activity: Toxic
LLC-PK1 [29]
  Activity: Toxic
LLC-PK1 [30]
  Activity: Dose-dependent effect
LLC-PK1 [31]
  Activity: Toxic
